Measurements from patent US10421755B2, “Salts of aza-bicyclic di-aryl ethers and methods to make them or their precursors” (Novartis AG, priority 2011, dated 2019).
In brackets after ≈: the same amount, converted by molar mass.

Assays:
Aqueous solubility = assay type: physicochemical
[1] = Oral bioavailability and brain penetration in mice; assay type: in vivo
Method: Assay: Compounds were orally (30 μmol/kg) administered. Male mice (30-35 g, OF1/ICstrain) were sacrificed at indicated time points after oral administration. Trunk-blood was collected in EDTA-containing tubes and the brain was removed and immediately frozen on dry ice. To 100 μl plasma 10 μl internal standard (1.0 μmol of a compound with solubility and ionization properties similar to test compounds) was added and extracted three times with 500 μl dichloromethane. The combined extracts were then dried under a stream of nitrogen and re-dissolved in 100 μl acetonitrile/water (70% acetonitrile). Brains were weighed and homogenized in water (1:5 w/v). Two 100 μl aliquots of each homogenate+10 μl of internal standard (same standard as used for the plasma samples) were extracted three times with 500 μl dichloromethane and further processed as the plasma samples. Samples were separated on Beckmann high-performance liquid chromatography equipment system with an autosampler (Gilson 233XL). A 10 min linear gradient (10-70%) of acetonitrile containing 0.5% (v/v) formic acid was used to elute the compounds from Nucleosil CC-125/2 C18 reversed phase (Machery&Nagel) column.
The limit of detection (LOD), defined as the lowest concentration of the extracted standard sample with a signal to noise ratio of ˜3.

[2] = Known multiple solid forms; assay type: physicochemical; conditions: comparison table, Example 7
mice = assay: Social Recognition Test in mice; assay type: in vivo; conditions: oral, dose 0.3 mg/kg, familiar partner at 24 h vs time 0
Method: Assay: Social interactions between two experimental animals are influenced by their degree of familiarity: the better they know each other, the less time they spend on mutual scrutiny at each meeting. […] Memory enhancing agents (i.e. oxiracetam) facilitate learning to the extent that the previously met (familiar) partner is still remembered after 24 h, whereas in vehicle treated control animals the memory usually fades after less than 1 hour (Thor and Holloway, 1982) or after 2-3 hours.
Baseline-test: Pairs consisting of one adult and one young mouse were assigned at random to the experimental and control groups. In each pair only the adult mouse was orally treated 1 hour before the trial with either vehicle or the test compound. The duration of active contacts of the adult mouse with the young mouse was manually recorded over a period of 3 min, including the following behavioural, approach-related items: sniffing, nosing, grooming, licking, pawing and playing, anogenital exploration and orientation toward the young mouse; orientation, thereby, was defined as tip of nose of the adult mouse less than approximately 1 cm distant from the young mouse's body. […]

human α7-nAChR = target: T1, human α7-nAChR (Homo sapiens, UniProt P36544); assay: functional assay (FLIPR, Fluo-4 calcium) using GH3 cells that recombinantly expressed human α7-nAChR; assay type: cell-based
T1 construct: expressed in transfected cells; host or cells: GH3 cells (rat pituitary line)
T1 sequence (P36544 23-502): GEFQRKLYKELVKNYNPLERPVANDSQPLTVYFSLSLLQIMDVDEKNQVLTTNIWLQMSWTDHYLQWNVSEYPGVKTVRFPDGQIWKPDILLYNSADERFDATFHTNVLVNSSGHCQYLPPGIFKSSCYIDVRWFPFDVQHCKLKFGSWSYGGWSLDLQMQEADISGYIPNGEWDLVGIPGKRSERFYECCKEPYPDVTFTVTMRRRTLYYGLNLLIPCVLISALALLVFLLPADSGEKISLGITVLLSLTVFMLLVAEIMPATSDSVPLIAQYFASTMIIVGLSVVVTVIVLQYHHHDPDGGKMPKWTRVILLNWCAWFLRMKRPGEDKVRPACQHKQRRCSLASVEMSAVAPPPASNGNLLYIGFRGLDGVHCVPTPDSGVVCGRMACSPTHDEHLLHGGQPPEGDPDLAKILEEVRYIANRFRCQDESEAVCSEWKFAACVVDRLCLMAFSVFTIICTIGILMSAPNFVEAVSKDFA
Method: Assay: To assess α7-nAChR activity, a functional assay was employed using GH3 cells that recombinantly expressed human α7-nAChR. 40000 cells per well were seeded 48 h prior to the experiment on black 96-well plates (Costar) and incubated at 37° C. in a humidified atmosphere (5% CO2/95% air). On the day of the experiment, medium was removed by flicking the plates and replaced with 0.1 ml growth medium containing 0.002 mM Fluo-4, (Molecular Probes) in the presence of 2.5 mM probenecid (Sigma). The cells were incubated at 37° C. in a humidified atmosphere (5% CO2/95% air) for 1 h. Plates were flicked to remove excess of Fluo-4, washed twice with Hepes-buffered salt solution (HBSS, in mM: NaCl 130, KCl 5.4, CaCl2 2, MgSO4 0.8, NaH2PO4 0.9, glucose 25, Hepes 20, pH 7.4; HBS) and refilled with 0.1 ml of HBS containing antagonist when appropriate. The incubation in the presence of the antagonist lasted 3-5 minutes. Plates were placed in the cell plate stage of a FLIPR device (fluorimetric imaging plate reader, Molecular Devices, Sunnyvale, Calif., USA). After recording of the baseline (laser: excitation 488 nm at 1 W, CCD camera opening of 0.4 seconds) the agonists (0.05 ml) were added to the cell plate using the FLIPR 96-tip pipettor while simultaneously recording the fluorescence. […]

[3] = target: T2, human neuronal nAChR α4β2 (Homo sapiens, UniProt P17787+P43681); assay: similar functional assay using a human epithelial cell line stably expressing the human α4β2 subtype; assay type: cell-based
T2 construct: expressed in transfected cells
T2 sequence (P43681 29-627 limits assumed): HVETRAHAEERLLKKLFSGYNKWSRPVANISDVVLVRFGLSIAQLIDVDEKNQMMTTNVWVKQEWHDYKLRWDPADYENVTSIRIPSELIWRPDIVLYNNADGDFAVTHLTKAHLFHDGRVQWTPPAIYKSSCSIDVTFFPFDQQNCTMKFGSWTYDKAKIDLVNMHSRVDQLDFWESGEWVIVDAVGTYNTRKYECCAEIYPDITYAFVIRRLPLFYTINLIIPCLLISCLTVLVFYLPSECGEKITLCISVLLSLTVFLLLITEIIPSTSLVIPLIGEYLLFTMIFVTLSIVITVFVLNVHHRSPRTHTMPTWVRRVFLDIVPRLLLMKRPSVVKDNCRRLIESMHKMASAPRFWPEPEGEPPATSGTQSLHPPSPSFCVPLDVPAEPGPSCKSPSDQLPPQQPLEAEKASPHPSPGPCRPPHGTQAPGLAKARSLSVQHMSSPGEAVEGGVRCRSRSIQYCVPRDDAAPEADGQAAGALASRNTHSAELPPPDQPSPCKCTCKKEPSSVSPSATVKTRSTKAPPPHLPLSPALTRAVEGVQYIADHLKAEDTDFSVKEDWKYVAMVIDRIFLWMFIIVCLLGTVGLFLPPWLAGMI
T2 sequence (P17787 26-502): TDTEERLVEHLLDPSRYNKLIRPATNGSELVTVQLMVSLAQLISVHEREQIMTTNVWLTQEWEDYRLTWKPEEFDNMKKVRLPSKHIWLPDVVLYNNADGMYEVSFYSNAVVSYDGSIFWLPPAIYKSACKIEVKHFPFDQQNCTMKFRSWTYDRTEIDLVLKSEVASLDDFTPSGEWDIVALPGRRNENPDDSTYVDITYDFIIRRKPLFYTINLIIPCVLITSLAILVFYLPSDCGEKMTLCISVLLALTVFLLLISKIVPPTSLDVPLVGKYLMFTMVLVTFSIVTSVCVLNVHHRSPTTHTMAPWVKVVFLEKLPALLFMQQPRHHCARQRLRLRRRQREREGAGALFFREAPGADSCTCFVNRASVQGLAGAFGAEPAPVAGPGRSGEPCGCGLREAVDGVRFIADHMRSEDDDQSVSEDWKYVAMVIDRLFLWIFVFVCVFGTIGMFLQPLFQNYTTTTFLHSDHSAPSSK
Method: To assess the activity of the compound of the invention on the human neuronal nAChR α4β2, a similar functional assay is carried out using a human epithelial cell line stably expressing the human α4β2 subtype (Michelmore et al., Naunyn-Schmiedeberg's Arch. Pharmacol. (2002) 366, 235).

[4] = Decomposition temperature; assay type: physicochemical; parameters: unit not given here; conditions: comparison table, Example 7
[5] = Loss on drying / initial water content; assay type: physicochemical; parameters: Initial water content: unit not given here
[6] = Hygroscopicity (moisture gain at relative humidity); assay type: physicochemical; parameters: Hygroscopy @ 85% RH: unit not given here

Cc1ccc(-c2ccc(O[C@H]3CN4CCC3CC4)cn2)cc1 [Compound A, (R)-3-(6-(4-methylphenyl)-pyridin-3-yloxy)-1-aza-bicyclo[2.2.2]octane]
aqueous solubility (in words) (Aqueous solubility): low
solubility (Aqueous solubility; aqueous medium, comparison table, Example 7): 50 µg/mL (≈ 170 µM)
Brain (pmoles/g ± SD) ([1]; 30 μmol/kg p.o., 0.25 hour): 4631 ± 1717 pmol/g
Brain (pmoles/g ± SD) ([1]; 30 μmol/kg p.o., 0.5 hour): 11430 ± 3441 pmol/g
Brain (pmoles/g ± SD) ([1]; 30 μmol/kg p.o., 1 hour): 14948 ± 4716 pmol/g
Brain (pmoles/g ± SD) ([1]; 30 μmol/kg p.o., 4 hour): 1272 ± 715 pmol/g
Brain (pmoles/g ± SD) ([1]; 30 μmol/kg p.o., 8 hour): 58 ± 27 pmol/g
time for which brain concentration is beyond (or at least equal) to the EC50 at the α7-nAChR ([1]; acute oral dose of 30 μmol/kg): at least 4 hours
concentration at 0.25 h ([1]; male, OF1/IC, mouse, plasma, po, 30 μmol/kg p.o., 0.25 hour, read-out: Plasma (pmoles/ml ± SD)): 573 ± 234 pmol/mL
concentration at 0.5 h ([1]; male, OF1/IC, mouse, plasma, po, 30 μmol/kg p.o., 0.5 hour, read-out: Plasma (pmoles/ml ± SD)): 559 ± 143 pmol/mL
concentration at 1 h ([1]; male, OF1/IC, mouse, plasma, po, 30 μmol/kg p.o., 1 hour, read-out: Plasma (pmoles/ml ± SD)): 322 ± 135 pmol/mL
concentration at 4 h ([1]; male, OF1/IC, mouse, plasma, po, 30 μmol/kg p.o., 4 hour, read-out: Plasma (pmoles/ml ± SD)): 20 ± 16 pmol/mL
concentration at 8 h ([1]; male, OF1/IC, mouse, plasma, po, 30 μmol/kg p.o., 8 hour, read-out: Plasma (pmoles/ml ± SD)): 3.4 ± 0.8 pmol/mL
Known Multiple forms [2]: Yes
Reduction in time scrutinizing in % ± SEM at 24 h (mice): 36 ± 6%
α7-nAChR activity Efficacy compared to epibatidine (100%) (human α7-nAChR; Emax relative to epibatidine response): 75%
EC50 (human α7-nAChR; GH3 cells, human α7-nAChR, read-out: α7-nAChR activity Potency EC50): 35 nM
EC50 [3]: > 100 µM
IC50 [3]: 5.6 µM
Decomposition temperature [4]: 224
Loss on drying (LOD) of a sample [5]: 0.1%
Initial water content ([5]; comparison table, Example 7): 0.1
hygroscopicity (in words) [6]: hygroscopic
moisture gain ([6]; at 93% relative humidity (RH)): 2%
Hygroscopy @ 85% RH ([6]; comparison table, Example 7): ~2
